Experimental findings from ChEMBL document CHEMBL1130713, “Development of 2,2-dimethylchromanol cysteinyl LT1 receptor antagonists” (Bioorg Med Chem Lett, 1998) are described below.

Each structure is given as a SMILES string.

Usually IC50 stands for the point on the concentration scale where inhibition reaches its midpoint. As a reminder, the half-life is how long it takes for the measured level to halve. Higher therefore signals slow decline. One may read the Ki as a dissociation constant, usually derived from enzyme kinetics or from competition with a known ligand. Read a high Ki as a looser hold on the target. Usually inhibition in vivo stands for the change of the read-out against control, counted positive when it falls. Low readings indicate little suppression, high ones strong suppression.

The species named for data set [1] is Homo sapiens. The data set can be described thus: Compound was tested for its ability to inhibit calcium influx in human U937 cells. It counts as functional, cell-based. The conditions noted are these: U-937.
Data set [2] can be described thus: Volume of distribution after intravenous administration was evaluated in rat. It counts as ADME, organism-based. The conditions noted are these: in vivo, read-out: Vdss.
In data set [3] the test system is Rattus norvegicus. Briefly: Hepatic clearance after intravenous administration was evaluated in rat. The conditions noted are these: in vivo. It counts as ADME, organism-based, Liver.
The nature of data set [4]: Half-life was evaluated in plasma of rat. The class given is ADME, organism-based.
In data set [5] the target is T1, Cysteinyl leukotriene receptor 1 (Cavia porcellus, UniProt Q2NNR5).
T1 sequence (Q2NNR5 whole entry): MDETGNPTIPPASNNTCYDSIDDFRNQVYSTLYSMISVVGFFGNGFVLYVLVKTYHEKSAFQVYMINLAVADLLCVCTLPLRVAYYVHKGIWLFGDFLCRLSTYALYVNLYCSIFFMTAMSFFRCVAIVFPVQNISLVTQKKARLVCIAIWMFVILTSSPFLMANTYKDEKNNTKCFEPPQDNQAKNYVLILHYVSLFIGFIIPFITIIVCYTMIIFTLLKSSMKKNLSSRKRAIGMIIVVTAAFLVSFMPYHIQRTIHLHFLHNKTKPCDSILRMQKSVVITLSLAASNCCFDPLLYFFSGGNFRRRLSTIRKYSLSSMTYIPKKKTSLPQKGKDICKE
Briefly: Antagonism of Cysteinyl leukotriene receptor 1 from guinea pig lung membranes. The class given is functional, tissue-based.

Data set [6] has as its system Cavia porcellus. Briefly: Compound was tested for its ability to block antigen induced airway obstruction in guinea pig at dose 1 mg/kg at 1 hr. The class given is functional.
Data set [7] has as its system Cavia porcellus. The data set can be described thus: Compound was tested for its ability to block antigen induced airway obstruction in guinea pig at dose 1 mg/kg at 2 hr. It counts as functional.

As for `COc1ccc(NS(=O)(=O)C(F)(F)F)cc1C[C@H]1[C@@H](O)c2cc(OCc3ccc4ccc(Cl)cc4n3)ccc2OC1(C)C`, in data set [1], the IC50 amounted to 0.5 nM. Also, the Vd in data set [2] turned out to be 1.6 L/kg. Also, in data set [3], the Clp is 0.402 L/h/kg. Also, the half-life in data set [4] was 3.6 h. Moreover, in data set [5], the Ki was determined as 4 nM. In data set [6], this compound returned an inhibition in vivo at 1 mg/kg of 57.9%.
As to `CC1(C)Oc2ccc(OCc3nc4cc(F)c(F)cc4s3)cc2[C@H](O)[C@@H]1Cc1cc(NS(=O)(=O)C(F)(F)F)ccc1Cl`, the IC50 in data set [1] came out at 17 nM. Besides, the Ki in data set [5] is 4 nM.
`O=C(Nc1cccc2c(=O)cc(-c3nnn[nH]3)oc12)c1ccc(OCCCCc2ccccc2)cc1`: the IC50 in data set [1] is 1 nM. Further, the inhibition in vivo at 1 mg/kg in data set [6] worked out at 50.1%.
In the same order, the values of `C[C@H]1Oc2ccc(OCc3nc4cc(F)ccc4s3)cc2[C@H](O)[C@@H]1Cc1cccc(NS(=O)(=O)C(F)(F)F)c1` are 8 nM and 66.5%.
As for `CC1(C)Oc2ccc(OCc3nc4cc(F)c(F)cc4s3)cc2[C@H](O)[C@@H]1Cc1cccc(NS(=O)(=O)C(F)(F)F)c1`, the IC50 in data set [1] stood at 2 nM. Besides, the affinity in data set [5] corresponds to a Ki of 7 nM. The compound further came in with an inhibition in vivo at 1 mg/kg in data set [7] of 45.8%.
Regarding `COc1ccc(NS(=O)(=O)C(F)(F)F)cc1C[C@H]1[C@@H](O)c2cc(/C=C/c3ccc4ccc(Cl)cc4n3)ccc2OC1(C)C`, the half-maximal inhibitory concentration (IC50) in data set [1] came out at 0.2 nM. Also, the affinity in data set [5] corresponds to a Ki of 5 nM. In addition, at 1 mg/kg the inhibition in vivo in data set [7] was 40.8%.
For `COc1ccc(NS(=O)(=O)C(F)(F)F)cc1C[C@H]1[C@@H](O)c2cc(OCc3nc4cc(F)c(F)cc4s3)ccc2OC1(C)C`, the IC50 in data set [1] amounted to 0.3 nM. For the same compound, the Vd in data set [2] came out at 3.8 L/kg. Moreover, the Clp in data set [3] came to 0.96 L/h/kg. In addition, the half-life in data set [4] was 3.9 h. In data set [5], the inhibitory constant (Ki) came out at 2 nM. In addition, the inhibition in vivo at 1 mg/kg in data set [7] was 37.8%.
In the case of `O=C(O)c1cccc(C[C@@H]2COc3ccc(OCc4nc5cc(F)ccc5s4)cc3[C@@H]2O)c1`, the concentration for half-maximal inhibition (IC50) in data set [1] stood at 310 nM. Moreover, the Vd in data set [2] is 0.4 L/kg. This compound also had a Clp in data set [3] of 0.198 L/h/kg. For the same compound, the half-life in data set [4] was 1.3 h. In data set [5], this compound had an inhibition constant Ki of 14 nM. Also, in data set [7], the inhibition in vivo at 1 mg/kg amounted to 56%.
For the compound `COc1cc(C(=O)NS(=O)(=O)c2ccccc2C)ccc1Cc1cn(C)c2ccc(NC(=O)OC3CCCC3)cc12` [ZAFIRLUKAST], the concentration for half-maximal inhibition (IC50) in data set [1] came to 1 nM. Testing at 1 mg/kg in data set [7] gave an inhibition in vivo of 51.6%.
